We go through 1 compound from patent publication US20030082229A1, “Parenteral chlorambucil for treatment of malignant and autoimmune disease and methods of use” (priority 2001, published 2003).

Structures are written as SMILES. “Also recorded” adds a separate entry of the source.

Series [1] in a line: IV CLB pharmacology in beagle dogs. Format: in vivo. How it is done:
The CLB given to beagle dogs was prepared as above. The same general design of the experiment was used, except that the dogs received a maximum dose of 7.5 mg/kg BW through a cephalic vein catheter, and the drug was delivered under general anesthesia.
Blood samples (0.5-1.0 ml) were drawn in heparinized tubes at selected time points prior to the drug infusion (“blank”), and from 5 min to 6 hours after drug injection for determination of CLB concentrations. The samples were obtained through cardiac puncture under light CO2 anesthesia in the rats and through a prepositioned cephalic vein catheter in the dogs. The blood was centrifuged at 1,000×g for 10 min, and the plasma was removed and stored at−80° C. until extracted and assayed by HPLC.

The next series has as its system erythrocytes. In words: Hemolysis studies in vitro. Format: cell-based. Conditions: drug concentrations of 100 μg/ml or more. An excerpt: The procedure of Parthasarathy et al. was used to examine the hemolytic potential of a few selected formulations of the present invention, and the LD50 (concentration that results in 50% lethality or destruction of a population) values of the most optimal formulation was constructed as previously described (Parthasarathy R, Sacks P G, Harris D, et al: Interaction of liposome-associated all-trans-retinoic acid with squamous carcinoma cells. CANCER CHEMOTHER. PHARMACOL. 34:527-34, 1994). Briefly, heparinized blood was mixed with an equal volume of Alsever's solution. This mixture was washed twice in phosphate-buffered saline (PBS), and a 10% (volume per volume, v/v) erythrocyte/PBS solution was then prepared and mixed with increasing amounts of the solvent (prototype EtOH/lipid solvent vehicle and NS) with or without addition of CLB. These resulting mixtures were incubated for 4 hours at 37° C. At the end of the incubation, the cells were pelleted at 10,000×g in an Eppendorf micro-centrifuge, and after washing twice in NS, the pellet was resuspended and lysed using distilled water. The release of hemoglobin in the supernatant (i.e., hemolysis) was determined spectrophotometrically at a wavelength of 550 nm. […]
The hemolytic potential of the formulations (EtOH/lipid/CLB/NS) were evaluated as described. […]

The format of series [2] is physicochemical. The following applies: RT. An excerpt: HPLC assay provides an accurate and sensitive detection system for low concentrations of CLB in solution, both protein-free mixtures and protein-containing fluids (i.e., blood plasma), utilizing absorbency detection in the ultraviolet (UV) spectrum. For the detection a wavelength of 254 nm was chosen on the basis of the inherent absorption maximum of the CLB molecule. The HPLC system was equipped with a Waters 717 plus AutoSampler (Waters, Milford, Mass.). The detector was a Waters Model 486 Tunable Absorbance Detector in sequence with a Waters Millennium™ software package for HPLC (Waters, Milford, Mass.). The column used was a Whatman C-18 EQC […] 125A μBondapak 4.6×216 mm. […] The analytic system was based on previously established extraction and HPLC experience with retinoic acid and with the bifunctional DNA-alkylating drug busulfan (Napoli J L, Pramanik B C, Williams J B et al: Quantification of retinoic acid by gas-liquid chromatography-mass spectrometry: total versus all-trans-retinoic acid in human plasma. J LIPID RES. 26: 387-392, 1985; Chow D S-L, Bhagwatwar H P, Phadungpojna S, Andersson B S: Stability-indicating high-performance liquid chromatographic assay of busulfan in aqueous and plasma samples. J CHROMATOGR B, 704: 277-288, 1997). […]

For series [3] the following is noted: cited from earlier work.

As a reminder, the half-life is the time in which the quantity being followed falls by half. With `O=C(O)CCCc1ccc(N(CCCl)CCCl)cc1` [CLB, 4-[Bis(2-chloroethyl)amino]benzenebutanoic acid], in series [1] (7.5 mg/kg BW IV), the “CLB plasma concentrations after IV injection, beagles” value is listed as “detectable, cytotoxic CLB plasma concentrations; also recorded: for several hours remained in the cytotoxic range; also recorded: maintained for several hours” and the “Tolerability of injection, beagles” value is “well accepted”. Further, the “Neurological effect, no premedication” value in series [1] (7.5 mg/kg BW IV, dogs) is listed as “generalized seizure; also recorded: caused seizures”. Besides, the “Neurological effect, premedicated with diphenylhydantoin” value in series [1] (7.5 mg/kg BW IV, two dogs) was “tolerated the CLB administration without any obvious neurological effects”. Also, the half-life in series [1] (dog, plasma, IV, this formulation, FIG. 7 beagle 7.5 mg/kg, read-out: Apparent terminal half-life) is about 1 h. Further, the CLB-dependent lysis entry in the series on erythrocytes is given as “barely exceeded background”. Moreover, the “Time CLB stable at 100 mg/ml in EtOH/lipid solvent” value in series [2] (100 mg/ml, prototype EtOH/lipid vehicle) is “more than 7 days”. The “Drug still intact at 7 days” value in series [2] (EtOH/lipid solvent system, HPLC) was over 95%. Also, in series [3] (oral, intermittent schedule, confusion, generalized seizures), the “Dose at which dose-limiting neurological toxicity is manifested” value was at least 100 mg/m^2 BSA. Moreover, the “Terminal half-life in blood” value in series [3] (taken by mouth) was “approximately 60 minutes”.
